The values below come from patent publication US20240238425A1, “HSD17B13 Inhibitors and/or Degraders” (Pfizer Inc., priority 2022, published 2024).

Where a name gives a salt, the structure may show the parent alone.

One may read the DC50 as the concentration giving 50% degradation.

In the test the test system is HiBiT-HSD17β13 fusion protein (N-terminal HiBiT-tagged HSD17β13 isoform D) in Huh7 HiBiT-HSD17β13 OE cells. The test is described as follows: Whole-cell Huh7-HSD17B13 HiBiT assay (degrader potency and maximal efficacy, luminescence readout). The format is cell-based, human. The settings on record: 24 hour incubation, geometric mean, * = geometric mean for all forms tested (parent and salt forms); for DC50: read-out: Huh7_HIBIT-HSD17β13_DC50 GMean DC50; for Huh7_HIBIT-HSD17β13_DC50 GMean Asymptote Maximum: max. concentration 1 μM. A digest of the protocol:
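Luminescence from lytic HiBiT detection tracked residual HiBiT-HSD17β13 (isoform D, N-terminal tag) in a stable Huh7 overexpressing clone after 24 h compound treatment at 37° C, 11 concentrations up to 1 μM final. Percent effect used DMSO (zero) and parental Huh7 (high) wells; four-parameter fit gave 50% degradation; viability checked by CellTiter-Glo.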
For orientation: The HiBiT peptide binds its large partner to form an active luciferase.

On to `Cn1c(=O)n(C2CCC(=O)NC2=O)c2ccc(CCCN3CCN(c4cc5cn([C@H]6CC[C@H](CNC(=O)c7cc(F)c(O)c(F)c7F)CC6)nc5cn4)CC3)cc21` (mixture of isomers) [Example 93, N-{[(1r,4r)-4-{5-[4-(3-{1-[(3RS)-2,6-dioxopiperidin-3-yl]-3-methyl-2-oxo-2,3-dihydro-1H-benzimidazol-5-yl}propyl)piperazin-1-yl]-2H-pyrazolo[3,4-c]pyridin-2-yl}cyclohexyl]methyl}-2,3,5-trifluoro-4-hydroxybenzamide, formate salt], for which the DC50 came out at 0.69 nM and the “Huh7_HIBIT-HSD17β13_DC50 GMean Asymptote Maximum” value turned out to be 83%.

On to `Cn1c(=O)n(C2CCC(=O)NC2=O)c2ccc(CCCN3CCN(c4ccc5cn([C@]67CC[C@](CNC(=O)c8cc(F)c(O)c(F)c8F)(CC6)CC7)nc5c4)CC3)cc21` (mixture of isomers) [Example 94, N-[(4-{6-[4-(3-{1-[(3RS)-2,6-dioxopiperidin-3-yl]-3-methyl-2-oxo-2,3-dihydro-1H-benzimidazol-5-yl}propyl)piperazin-1-yl]-2H-indazol-2-yl}bicyclo[2.2.2]octan-1-yl)methyl]-2,3,5-trifluoro-4-hydroxybenzamide], for which the DC50 is 0.21 nM and the “Huh7_HIBIT-HSD17β13_DC50 GMean Asymptote Maximum” value is recorded as 84%.

On to `Cn1c(=O)n(C2CCC(=O)NC2=O)c2ccc(CCCN3CCN(c4ncc(-c5ccc6cn([C@]78CC[C@](CNC(=O)c9cc(F)c(O)c(F)c9F)(CC7)CC8)nc6c5)cn4)CC3)cc21` (mixture of isomers) [Example 95, N-{[4-(6-{2-[4-(3-{1-[(3RS)-2,6-dioxopiperidin-3-yl]-3-methyl-2-oxo-2,3-dihydro-1H-benzimidazol-5-yl}propyl)piperazin-1-yl]pyrimidin-5-yl}-2H-indazol-2-yl)bicyclo[2.2.2]octan-1-yl]methyl}-2,3,5-trifluoro-4-hydroxybenzamide, trifluoroacetate salt], for which the DC50 was determined as 0.24 nM and the “Huh7_HIBIT-HSD17β13_DC50 GMean Asymptote Maximum” value is recorded as 80%.

As for `Cn1c(=O)n(C2CCC(=O)NC2=O)c2ccc(CCCN3CCOC4(C3)CN(c3ccc5cn([C@H]6CC[C@H](CNC(=O)c7cc(F)c(O)c(F)c7F)CC6)nc5c3)C4)cc21` (mixture of isomers) [Example 98, N-{[(1r,4r)-4-{6-[8-(3-{1-[(3RS)-2,6-dioxopiperidin-3-yl]-3-methyl-2-oxo-2,3-dihydro-1H-benzimidazol-5-yl}propyl)-5-oxa-2,8-diazaspiro[3.5]nonan-2-yl]-2H-indazol-2-yl}cyclohexyl]methyl}-2,3,5-trifluoro-4-hydroxybenzamide, trifluoroacetate salt], the DC50 was found to be 0.82 nM and the “Huh7_HIBIT-HSD17β13_DC50 GMean Asymptote Maximum” value turned out to be 78%.

`Cn1c(=O)n(C2CCC(=O)NC2=O)c2ccc(CCCN3CCn4cc(-c5ccc6cn([C@H]7CC[C@H](CNC(=O)c8cc(F)c(O)c(F)c8F)CC7)nc6c5)nc4C3)cc21` (mixture of isomers) [Example 100, N-{[(1r,4r)-4-{6-[7-(3-{1-[(3RS)-2,6-dioxopiperidin-3-yl]-3-methyl-2-oxo-2,3-dihydro-1H-benzimidazol-5-yl}propyl)-5,6,7,8-tetrahydroimidazo[1,2-a]pyrazin-2-yl]-2H-indazol-2-yl}cyclohexyl]methyl}-2,3,5-trifluoro-4-hydroxybenzamide, formate salt]: the DC50 stood at 2.2 nM and the “Huh7_HIBIT-HSD17β13_DC50 GMean Asymptote Maximum” value is 84%.

Take `Cn1c(=O)n(C2CCC(=O)NC2=O)c2ccc(CCCN3CC[C@@H]4CN(c5ccc6cn([C@H]7CC[C@H](CNC(=O)c8cc(F)c(O)c(F)c8F)CC7)nc6c5)C[C@H]4C3)cc21` (mixture of isomers) [Example 101, N-{[(1r,4r)-4-{6-[(3aR,7aS)-5-(3-{1-[(3RS)-2,6-dioxopiperidin-3-yl]-3-methyl-2-oxo-2,3-dihydro-1H-benzimidazol-5-yl}propyl)octahydro-2H-pyrrolo[3,4-c]pyridin-2-yl]-2H-indazol-2-yl}cyclohexyl]methyl}-2,3,5-trifluoro-4-hydroxybenzamide, formate salt]: the DC50 worked out at 0.88 nM and the “Huh7_HIBIT-HSD17β13_DC50 GMean Asymptote Maximum” value was determined as 74%.

Turning to `Cn1c(=O)n(C2CCC(=O)NC2=O)c2ccc(CCCN3C[C@@H]4CCN(c5ccc6cn([C@H]7CC[C@H](CNC(=O)c8cc(F)c(O)c(F)c8F)CC7)nc6c5)C[C@@H]4C3)cc21` (mixture of isomers) [Example 102, N-{[(1r,4r)-4-{6-[(3aS,7aR)-2-(3-{1-[(3RS)-2,6-dioxopiperidin-3-yl]-3-methyl-2-oxo-2,3-dihydro-1H-benzimidazol-5-yl}propyl)octahydro-5H-pyrrolo[3,4-c]pyridin-5-yl]-2H-indazol-2-yl}cyclohexyl]methyl}-2,3,5-trifluoro-4-hydroxybenzamide, formate salt], the DC50 stood at 1.5 nM and the “Huh7_HIBIT-HSD17β13_DC50 GMean Asymptote Maximum” value is on record as 74%.

In the case of `Cn1c(=O)n(C2CCC(=O)NC2=O)c2ccc(CCN3Cc4ccc(-c5ccc6cn([C@H]7CC[C@H](CNC(=O)c8cc(F)c(O)c(F)c8F)CC7)nc6c5)cc4C3)cc21` (mixture of isomers) [Example 106, N-{[(1r,4r)-4-{6-[2-(2-{1-[(3RS)-2,6-dioxopiperidin-3-yl]-3-methyl-2-oxo-2,3-dihydro-1H-benzimidazol-5-yl}ethyl)-2,3-dihydro-1H-isoindol-5-yl]-2H-indazol-2-yl}cyclohexyl]methyl}-2,3,5-trifluoro-4-hydroxybenzamide, trifluoroacetate salt], the DC50 is 0.22 nM and the “Huh7_HIBIT-HSD17β13_DC50 GMean Asymptote Maximum” value was 80%.

`Cn1c(=O)n(C2CCC(=O)NC2=O)c2ccc(CCCN3CCc4nc(-c5ccc6cn([C@H]7CC[C@H](CNC(=O)c8cc(F)c(O)c(F)c8F)CC7)nc6c5)sc4C3)cc21` (mixture of isomers) [Example 115, N-{[(1r,4r)-4-{6-[5-(3-{1-[(3RS)-2,6-dioxopiperidin-3-yl]-3-methyl-2-oxo-2,3-dihydro-1H-benzimidazol-5-yl}propyl)-4,5,6,7-tetrahydro[1,3]thiazolo[5,4-c]pyridin-2-yl]-2H-indazol-2-yl}cyclohexyl]methyl}-2,3,5-trifluoro-4-hydroxybenzamide, trifluoroacetate salt]: the half-maximal degradation concentration (DC50) turned out to be 0.26 nM and the “Huh7_HIBIT-HSD17β13_DC50 GMean Asymptote Maximum” value came out at 79%.

As for `Cn1c(=O)n(C2CCC(=O)NC2=O)c2ccc(CCCN3Cc4cc(-c5ccc6cn([C@H]7CC[C@H](CNC(=O)c8cc(F)c(O)c(F)c8F)CC7)nc6c5)cnc4C3)cc21` (mixture of isomers) [Example 116, N-{[(1r,4r)-4-{6-[6-(3-{1-[(3RS)-2,6-dioxopiperidin-3-yl]-3-methyl-2-oxo-2,3-dihydro-1H-benzimidazol-5-yl}propyl)-6,7-dihydro-5H-pyrrolo[3,4-b]pyridin-3-yl]-2H-indazol-2-yl}cyclohexyl]methyl}-2,3,5-trifluoro-4-hydroxybenzamide, trifluoroacetate salt], the DC50 was 0.2 nM and the “Huh7_HIBIT-HSD17β13_DC50 GMean Asymptote Maximum” value worked out at 88%.

For the molecule `Cn1c(=O)n(C2CCC(=O)NC2=O)c2ccc(CCN3CCOC4(C3)CN(c3ccc5cn([C@H]6CC[C@H](CNC(=O)c7cc(F)c(O)c(F)c7F)CC6)nc5c3)C4)cc21` (mixture of isomers) [Example 117, N-{[(1r,4r)-4-{6-[8-(2-{1-[(3RS)-2,6-dioxopiperidin-3-yl]-3-methyl-2-oxo-2,3-dihydro-1H-benzimidazol-5-yl}ethyl)-5-oxa-2,8-diazaspiro[3.5]nonan-2-yl]-2H-indazol-2-yl}cyclohexyl]methyl}-2,3,5-trifluoro-4-hydroxybenzamide, trifluoroacetate salt], the DC50 worked out at 0.95 nM and the “Huh7_HIBIT-HSD17β13_DC50 GMean Asymptote Maximum” value came to 79%.

For `Cn1c(=O)n(C2CCC(=O)NC2=O)c2ccc(CCCN3C[C@H]4CN(c5ccc6cn([C@H]7CC[C@H](CNC(=O)c8cc(F)c(O)c(F)c8F)CC7)nc6c5)C[C@@H]4C3)cc21` (mixture of isomers) [Example 118, N-{[(1r,4r)-4-{6-[(3aS,6aS)-5-(3-{1-[(3RS)-2,6-dioxopiperidin-3-yl]-3-methyl-2-oxo-2,3-dihydro-1H-benzimidazol-5-yl}propyl)hexahydropyrrolo[3,4-c]pyrrol-2(1H)-yl]-2H-indazol-2-yl}cyclohexyl]methyl}-2,3,5-trifluoro-4-hydroxybenzamide, trifluoroacetate salt], the DC50 came to 2.9 nM and the “Huh7_HIBIT-HSD17β13_DC50 GMean Asymptote Maximum” value is given as 78%.

On to `Cn1c(=O)n(C2CCC(=O)NC2=O)c2ccc(CCCN3Cc4cnc(-c5ccc6cn([C@H]7CC[C@H](CNC(=O)c8cc(F)c(O)c(F)c8F)CC7)nc6c5)cc4C3)cc21` (mixture of isomers) [Example 119, N-{[(1r,4r)-4-{6-[2-(3-{1-[(3RS)-2,6-dioxopiperidin-3-yl]-3-methyl-2-oxo-2,3-dihydro-1H-benzimidazol-5-yl}propyl)-2,3-dihydro-1H-pyrrolo[3,4-c]pyridin-6-yl]-2H-indazol-2-yl}cyclohexyl]methyl}-2,3,5-trifluoro-4-hydroxybenzamide, formate salt], for which the DC50 amounted to 0.28 nM and the “Huh7_HIBIT-HSD17β13_DC50 GMean Asymptote Maximum” value was 75%.

For the molecule `Cn1c(=O)n(C2CCC(=O)NC2=O)c2ccc(CCCN3CCN(c4cnc(-c5ccn6cc([C@]78CC[C@](CNC(=O)c9cc(F)c(O)c(F)c9F)(CC7)CC8)nc6c5)nc4)CC3)cc21` (mixture of isomers) [Example 120, N-{[4-(7-{5-[4-(3-{1-[(3RS)-2,6-dioxopiperidin-3-yl]-3-methyl-2-oxo-2,3-dihydro-1H-benzimidazol-5-yl}propyl)piperazin-1-yl]pyrimidin-2-yl}imidazo[1,2-a]pyridin-2-yl)bicyclo[2.2.2]octan-1-yl]methyl}-2,3,5-trifluoro-4-hydroxybenzamide, trifluoroacetate salt], the DC50 is 0.15 nM and the “Huh7_HIBIT-HSD17β13_DC50 GMean Asymptote Maximum” value is given as 82%.

Take `Cn1c(=O)n(C2CCC(=O)NC2=O)c2ccc(CCCN3CCN(c4nccc(-c5nc([C@]67CC[C@](CNC(=O)c8cc(F)c(O)c(F)c8F)(CC6)CC7)no5)n4)CC3)cc21` (mixture of isomers) [Example 121, formate salt]: the DC50 stood at 0.2 nM and the “Huh7_HIBIT-HSD17β13_DC50 GMean Asymptote Maximum” value came out at 85%.
